Where two headings read alike, the source gives them in different places.
Legend:
human LPA1 = molecular target: T1, human LPA1 (Homo sapiens, UniProt Q92633); assay: Ca2+ mobilization assay, LPA1; format: cell-based; settings: for EC50: RH7777 cells stably expressing LPA1, agonist mode; for IC50 / Ki: antagonist mode vs 200 nM LPA; for IC50: PA = partial antagonist, read-out: LPA1 IC50; for Ki: read-out: LPA1 (Ki)
T1 construct: expressed in transfected cells
Procedure: (§1) Receptor activation using Ca^2+ mobilization assay for diastereomers of 1 (also represented as 19b). The rat hepatoma (RH7777) cell lines individually expressing either LPA1, LPA2, LPA3 or LPA5 receptors and Chinese hamster ovary (CHO) cell line were analyzed to examine agonism and antagonism. […] CHO cells stably expressing either vector or LPA4 were kindly gifted from Dr. Shimizu (University of Tokyo, Tokyo, Japan).
(§2) Stable transformants of LPA1/2/3 receptors. RH7777 cells stably expressing each receptor were plated onto poly-L-lysine (PLL) (0.1 mg/mL)-coated black-wall clear-bottom 96-well plates (Corning Incorporated Life Sciences, Acton, Mass.) at a density of 5×10^4 cells/well and cultured overnight. The following day, the culture medium was replaced with modified Krebs buffer (120 mM NaCl, 5 mM KCl, 0.62 mM MgSO4, 1.8 mM CaCl2, 10 mM HEPES, 6 mM glucose, pH 7.4), and the cells were serum starved for 6 h. Subsequently, cells were loaded with Fura-2 AM (Invitrogen, Carlsbad, Calif.) for 35 min in modified Krebs buffer containing 2% (v/v) pluronic acid.
(§3) After incubating the cells with Fura-2 AM, the cells were rinsed with Krebs buffer and changes in the intracellular Ca^2+ concentration were monitored by determining the ratio of emitted light intensities at 520 nm in response to excitation at 340 and 380 nm using FLEXstation II (Molecular Devices, Sunnyvale, Calif.). Each well was monitored for 80-120 sec. For testing agonist activity of the compounds, the test compounds were added automatically after 15 sec of baseline measurement. To determine antagonist properties, varying concentrations of the compounds were mixed with a constant concentration of LPA and responses were monitored. Each test was performed in quadruplicate. EC50, IC50, and Ki values were calculated by fitting a sigmoid function to data points with the nonlinear curve-fitting feature of KaleidaGraph (Synergy Software, Essex Junction, Vt.).
Receptor activation using Ca^2+ mobilization assay. The assay for mobilization of intracellular Ca^2+ was performed as described. Briefly, rat hepatoma RH7777 cells stably expressing human LPA1, LPA2, or LPA3, and CHO cells stably expressing LPA4, were loaded with Fura-2 AM (Molecular Probes). Using a FLEXStation (Molecular Devices, Sunnyvale, Calif.), changes in intracellular Ca^2+ concentration were monitored. Ligand-induced changes in fluorescence were monitored for 80-120 seconds. Ca^2+ transients were quantified automatically by calculating the difference between maximum and baseline ratio values for each sample. To determine antagonist properties, different concentrations of each analogue were mixed with either palmitoyl (16:0) or oleoyl (18:1) LPA (200 nM for LPA1 and LPA3, 10 nM for LPA2, and 400 nM for LPA4) (Avanti Polar Lipids, Inc., […], Ala.) and responses were recorded. Each test was performed in quadruplicate. EC50, IC50, and Ki values were calculated as described. The ligand properties of the compounds were evaluated using Ca^2+ mobilization assay for assessing the activation/inhibition of LPA1, LPA2, and LPA3 expressed in RH7777 cells and LPA4 expressed in CHO cells. Table l illustrates calcium responses elicited through the activation of human LPA1, LPA2, LPA3 and LPA4 receptors. These cell lines have been used extensively for the characterization of LPA GPCR ligands because RH7777 cells are intrinsically unresponsive to LPA and CHO cells show minimal endogenous responses to LPA unless transfected with LPA4.

human LPA3 = molecular target: T2, human LPA3 (Homo sapiens, UniProt Q9UBY5); assay: Ca2+ mobilization assay, LPA3; format: cell-based; settings: for Emax: Emax = (maximal efficacy of compound/maximal efficacy of LPA 18:1) × 100; for EC50: RH7777 cells stably expressing LPA3, agonist mode
T2 construct: expressed in transfected cells
T2 sequence (Q9UBY5 1-353): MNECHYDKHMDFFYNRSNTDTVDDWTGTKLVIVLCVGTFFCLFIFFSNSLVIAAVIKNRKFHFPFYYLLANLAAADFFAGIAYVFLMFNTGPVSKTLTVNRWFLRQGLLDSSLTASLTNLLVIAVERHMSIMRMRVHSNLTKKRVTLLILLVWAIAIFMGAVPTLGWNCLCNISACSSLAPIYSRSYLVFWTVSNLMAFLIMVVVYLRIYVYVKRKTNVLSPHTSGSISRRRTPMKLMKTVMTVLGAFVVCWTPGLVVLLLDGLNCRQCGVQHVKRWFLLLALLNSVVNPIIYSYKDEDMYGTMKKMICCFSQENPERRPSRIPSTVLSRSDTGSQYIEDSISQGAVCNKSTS
Procedure: as §1, §2
as §3, with “To determine antagonist properties, varying concentrations of the compounds were mixed with a constant concentration of LPA and responses were monitored.” left out
(§4) Receptor activation using Ca^2+ mobilization assay. The assay for mobilization of intracellular Ca^2+ was performed as described. Briefly, rat hepatoma RH7777 cells stably expressing human LPA1, LPA2, or LPA3, and CHO cells stably expressing LPA4, were loaded with Fura-2 AM (Molecular Probes). Using a FLEXStation (Molecular Devices, Sunnyvale, Calif.), changes in intracellular Ca^2+ concentration were monitored. Ligand-induced changes in fluorescence were monitored for 80-120 seconds. Ca^2+ transients were quantified automatically by calculating the difference between maximum and baseline ratio values for each sample. […] Each test was performed in quadruplicate. EC50, IC50, and Ki values were calculated as described. The ligand properties of the compounds were evaluated using Ca^2+ mobilization assay for assessing the activation/inhibition of LPA1, LPA2, and LPA3 expressed in RH7777 cells and LPA4 expressed in CHO cells.

human LPA4 = molecular target: T3, human LPA4 (Homo sapiens, UniProt Q99677); assay: Ca2+ mobilization assay, LPA4 in CHO cells; format: cell-based; settings: for EC50: CHO cells stably expressing LPA4, agonist mode
T3 construct: expressed in transfected cells
T3 sequence (Q99677 whole entry): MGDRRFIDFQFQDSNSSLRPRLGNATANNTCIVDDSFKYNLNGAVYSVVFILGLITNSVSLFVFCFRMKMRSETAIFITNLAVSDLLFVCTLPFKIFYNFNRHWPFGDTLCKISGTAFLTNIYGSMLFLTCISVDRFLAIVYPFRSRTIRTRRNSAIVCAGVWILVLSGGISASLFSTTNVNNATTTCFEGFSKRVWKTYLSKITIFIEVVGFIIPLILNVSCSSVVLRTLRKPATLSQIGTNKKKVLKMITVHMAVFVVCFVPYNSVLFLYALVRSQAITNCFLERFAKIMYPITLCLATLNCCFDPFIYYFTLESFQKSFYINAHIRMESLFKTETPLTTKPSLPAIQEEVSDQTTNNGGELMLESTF
Procedure: as §1
Stable transformants of LPA4. CHO cells stably expressing either vector or LPA4 were plated on non-coated 96 well plates at a density of 4×10^4 cells/well and cultured overnight. The following day, cells were loaded with Fura-2 AM for 1 h in modified Krebs buffer containing 2% (v/v) pluronic acid and 2.5 mM probenecid.
as §3, with “To determine antagonist properties, varying concentrations of the compounds were mixed with a constant concentration of LPA and responses were monitored.” left out
as §4

human LPA2 = molecular target: T4, human LPA2 (Homo sapiens, UniProt Q9HBW0); assay: Ca2+ mobilization assay, LPA2; format: cell-based; settings: for EC50: RH7777 cells stably expressing LPA2, agonist mode; for IC50: read-out: LPA2 IC50; for Ki: read-out: LPA2 (Ki)
T4 construct: expressed in transfected cells
T4 sequence (Q9HBW0 whole entry): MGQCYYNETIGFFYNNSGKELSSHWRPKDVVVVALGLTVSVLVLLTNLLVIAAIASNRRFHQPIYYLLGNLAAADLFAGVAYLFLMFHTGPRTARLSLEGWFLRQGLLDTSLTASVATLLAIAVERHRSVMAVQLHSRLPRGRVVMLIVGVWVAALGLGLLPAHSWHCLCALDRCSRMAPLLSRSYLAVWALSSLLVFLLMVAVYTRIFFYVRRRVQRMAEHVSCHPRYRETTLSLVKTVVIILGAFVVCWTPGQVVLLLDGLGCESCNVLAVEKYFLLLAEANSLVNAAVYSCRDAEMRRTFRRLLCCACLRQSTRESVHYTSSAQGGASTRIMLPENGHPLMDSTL
Procedure: as §1, §2
as §3, with “To determine antagonist properties, varying concentrations of the compounds were mixed with a constant concentration of LPA and responses were monitored.” left out
as §4

recombinant ATX-HA = molecular target: T5, recombinant ATX-HA (Homo sapiens, UniProt Q13822); assay: Autotaxin assay (FS-3 hydrolysis); format: biochemical; settings: 10.0 μM, FS-3 substrate, preliminary single-dose screen; for inhibition at 10 µM: read-out: Inhibition (%) of autotaxin (ATX) phosphodiesterase activity
T5 construct: HA
Procedure: Autotaxin Assay. This assay utilizes FS-3 (Echelon Biosciences, Inc. Salt Lake City, Utah) as substrate and recombinant ATX-HA. For analysis, 50 μl of ATX-HA (0.25 μg) in assay buffer (Tris 50 mM, NaCl 140 mM, KCl 5mM, CaCl2 1 mM, MgCl2 1 mM, pH 8.0) was mixed with 25 μl of FS-3 (1 μM final concentration in assay buffer) and 25 μl of test compound dissolved in assay buffer containing 1:1.5 bovine serum albumin in 96-well plate. FS-3 fluorescence was monitored using FLEXstation fluorescence plate reader at a time zero and after 2 hours of incubation at 37° C. at excitation and emission wavelengths of 485 nm and 538 nm, respectively. Data was normalized to the corresponding vehicle control and the mean±standard deviation of triplicate wells were expressed as percent ATX inhibition. IC50, and Ki values were calculated as described.

[1] = antagonist mode vs 10 nM LPA, PA = partial antagonist

T1 sequence (Q92633 whole entry): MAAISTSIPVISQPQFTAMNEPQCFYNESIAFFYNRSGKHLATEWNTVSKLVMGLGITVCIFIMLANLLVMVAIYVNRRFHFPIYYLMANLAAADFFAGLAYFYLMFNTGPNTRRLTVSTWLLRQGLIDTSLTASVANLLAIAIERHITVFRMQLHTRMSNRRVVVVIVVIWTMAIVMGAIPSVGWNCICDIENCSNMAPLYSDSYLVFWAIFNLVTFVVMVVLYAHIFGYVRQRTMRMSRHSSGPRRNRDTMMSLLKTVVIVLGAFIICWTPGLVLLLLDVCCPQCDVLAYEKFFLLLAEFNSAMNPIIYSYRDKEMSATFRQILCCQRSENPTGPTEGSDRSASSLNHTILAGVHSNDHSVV

Emax (human LPA1; Emax = (maximal efficacy of compound/maximal efficacy of LPA 18:1) × 100) [%] | EC50 (human LPA1) [nM] | IC50 (human LPA1) [nM] | Emax (human LPA3) [%] | EC50 (human LPA3) [nM] | EC50 (human LPA4) [nM] | Emax (human LPA4; CHO, Emax = (maximal efficacy of compound/maximal efficacy of LPA 18:1) × 100) [%] | EC50 (human LPA2) [nM] | IC50 (human LPA2; [1]) [nM] | Ki (human LPA2; antagonist mode vs 10 nM LPA) [nM] | IC50 (human LPA2; antagonist of the LPA2 receptor) [nM] | inhibition at 10 µM (recombinant ATX-HA) [%] | Ki (human LPA1) [nM] | Ki (human LPA3; antagonist mode vs 200 nM LPA, read-out: LPA3 (Ki)) [nM] | IC50 (human LPA3; read-out: LPA3 IC50) [nM] | inhibition at 30 µM (human LPA4; CHO, read-out: LPA4 inhibition of 400 nM LPA response) [%] | IC50 (human LPA4) [nM] | Ki (human LPA4; antagonist mode vs 400 nM LPA) [nM] | Inhibition (%) of autotaxin (ATX) phosphodiesterase activity (recombinant ATX-HA) [%] | SMILES
63.2 | 528 | > 30000 | 63.5 | > 2670 | 3480 ± 561 | 40.5 | > 30000 | 1690 ± 85 | 845 | 1700 | 92.5 ± 2.1 | – | – | – | – | – | – | – | CCCCCCCC/C=C\CCCCCCCC(=O)OC[C@@H](O)CC(Cl)P(=O)(O)O (mixture of isomers) [Compound 18a, [1-Chloro-3(S)-hydroxyl-4-(oleoyloxy)butyl]-phosphonate]
– | > 30000 | 2490 ± 690 | – | > 30000 | > 30000 | – | > 30000 | 855 | 428 | – | 83 ± 2.1 | 919 | 98.3 | 175 | 80 | – | – | – | CCCCCCCCCCCCCCCC(=O)OC[C@@H](O)CC(Cl)P(=O)(O)O (mixture of isomers) [Compound 18b, [1-Chloro-3(S)-hydroxyl-4-(palmitoyloxy)butyl]-phosphonate]
– | > 30000 | 1620 ± 116 | 44.2 | > 2470 | > 30000 | – | > 30000 | 815 ± 60 | 174 | – | > 90 | 694 | – | – | – | 4000 ± 424 | 2500 | 90.7 ± 2.3 | CCCCCCCC/C=C\CCCCCCCC(=O)OC[C@@H](O)CC(Br)P(=O)(O)O (mixture of isomers) [Compound 19a, [1-Bromo-3(S)-hydroxyl-4-(oleoyloxy)butyl]-phosphonate]

— patent US8722649B2, “Alpha-chloro and alpha-bromo phosphonate analogs of lysophosphatidic acid and methods of making and using thereof” (University of Utah Research Foundation, priority 2007, dated 2014)
